Earlier results, collected in US20060264496A1, “Substituted indoline and indole derivatives” (priority 2003, published 2006).

Assays:
[1] = system: animal models of ethanol withdrawal syndrome
[2] = system: electrically induced seizures, seizures induced chemically by pentylenetetrazole, picrotoxin and N-methyl-D-aspartate (NMDA), DBA/2 mouse; conditions: oral and intraperitoneal administration, rats and mice
amygdala kindling model = conditions: complex partial seizures
epileptic patients = conditions: clinical trials
[3] = system: K(+) current in neuronal cells
[4] = system: animal models of neuropathic pain
[5] = system: kainic acid-induced status epilepticus; conditions: rat, following kainic acid-induced status epilepticus
hippocampal kindling = conditions: rat
[6] = system: animal models of anxiety-like behaviour; conditions: some animal models

SMILES | effect in ethanol withdrawal syndrome models [1] | anticonvulsant activity [2] | activity in amygdala kindling model (amygdala kindling model) | incidence of seizures (epileptic patients) | activation of K(+) current [3] | effect in neuropathic pain models [4] | limbic neurodegeneration and expression of markers of apoptosis [5] | progression of hippocampal kindling (hippocampal kindling) | activity in anxiety-like behaviour models [6]
NCC1(CC(=O)O)CCCCC1 [gabapentin] | very effective | – | – | – | – | – | – | – | –
CCOC(=O)Nc1ccc(NCc2ccc(F)cc2)cc1N [Retigabine, N-(2-amino-4-(4-fluorobenzylamino)-phenyl)carbamic acid ethyl ester] | – | active | active | effectiveness in reducing the incidence of seizures | activate a K(+) current | beneficial | prevent limbic neurodegeneration and the expression of markers of apoptosis | delay the progression of hippocampal kindling | active
